{
  "source": "patent US20140329766A1",
  "about": "“Prophylactic Compositions for Management of Microbial Infections in Patients with Brain Injury” (UTI LIMITED PARTNERSHIP, priority 2011, published 2014)",
  "key": {"hepatic iNKT cells": {"test_system": "hepatic iNKT cells", "assay": "Spinning disk confocal intravital microscopy of the liver: crawling behaviour of GFP+ (iNKT) cells", "format": "in vivo, mice", "conditions": "Cxcr6gfp/+ mice without MCAO (FIGS. 31A, 31B)", "method": "Murine liver intravital microscopy was performed as taught by Wong et al. (1997, A minimal role for selectins in the recruitment of leukocytes into the inflamed liver microvasculature. J. Clin. Invest. 99: 2782). Briefly, the tail vein of the anesthetized mice was cannulated to administer fluorescently labeled antibodies and/or additional anesthetic as required. Body temperature was maintained at 37° C. using an infrared heat lamp. Mice were placed in a right lateral position on an adjustable microscope stage. A lateral abdominal incision along the costal margin to the midaxillary line was made to exteriorize the liver, and all exposed tissues were moistened with saline-soaked gauze to prevent dehydration.\nCells were tracked using ImageJ software version 1.45 (NIH at http://rsb.info.nih.gov/ij/). Time-lapse videos exported from Volocity were imported as .mov file, and then converted to 8-bit grayscale. Fluorescent cells were adjusted using threshold control, and noise particles less than 2.0 pixels were removed by filter. Movement of cells was measured using manual tracking, and was calculated for each track using ImageJ output spreadsheets. The cell velocity was expressed in distance (μm) per time (min). 30-40 tracks from 10 mins videos of each animal in each experimental group were analyzed.\nExcised livers were prepared for in vivo microscopic observation. Briefly, the liver was placed on the pedestal of an inverted microscope and the liver surface was then covered with a small piece of saline-soaked KimWipe to hold the organ in position. The liver microvasculature was visualized using a spinning-disk confocal microscopy and images were acquired with an Olympus IX81 inverted microscope using a ×10/0.40 UplanFL N objective. The microscope was equipped with a confocal light path (WaveFx, Quorum, Guelph, ON, CA) based on a modified Yokogawa CSU-10 head (Yokogawa Electric Corporation, Tokyo, Japan). Cxcr6^gfp/+ mice were used to visualize hepatic iNKT cells. Laser excitation wavelengths (Cobolt, Stockholm, Sweden) were used in rapid succession and visualized with the appropriate long-pass filters (Semrock, Rochester, N.Y.). Typical exposure time for each excitation wavelength was 300 milli-seconds. A 512×512 pixel back-thinned electron-multiplying charge-coupled device camera (C9100-13, Hamamatsu, Bridgewater, N.J.) was used for fluorescence detection. Volocity Acquisition software (Improvision) was used to drive the confocal microscope. […] Behaviors of iNKT cells in the hepatic microvasculature were assessed.\nWildtype mice underwent the MCAO procedure as previously described in Example 1. […] The crawling behaviours of crawling GFP+ cells in livers from sham-operated control mice and post-ischemic mice were observed and quantified using the methods disclosed in Example 2."}, "tumors": {"test_system": "tumors", "conditions": "cited from earlier work"}, "[1]": {"assay": "Brain infarct size after MCAO", "format": "in vivo, mice", "conditions": "post-ischemic mice, single dose of α-GalCer (FIG. 45A)"}, "IFNγ": {"test_system": "IFNγ", "assay": "Serum cytokine IFNγ level in peripheral blood (Luminex)", "format": "in vivo", "conditions": "post-ischemic mice 24 h after MCAO; α-GalCer 2 μg/mouse i.v. 2 h after MCAO (FIG. 43A)", "method": "Levels of the cytokine IFNγ present in peripheral blood were determined by collecting blood samples by cardiac puncture, which were then allowed to clot at room temperature for at least 30 mins. The samples were then centrifuged at 400×g for 10 mins for the retrieval of serum. The serum samples were analyzed for the cytokine IFNγ by using a multiplex mouse cytokine/chemokine kit, and a Luminex 200 apparatus according to manufacturer's instructions. The data were analyzed with the StarStation V.2.3 software from Applied Cytometry Systems (UK)."}, "post-stroke infections": {"test_system": "post-stroke infections", "assay": "Bacteriological analysis (CFU) of blood, lungs, liver and spleen after MCAO", "format": "in vivo, mice", "conditions": "post-ischemic mice 24 h after MCAO; α-GalCer 2 μg/mouse i.v. 2 h after MCAO (FIGS. 44A-44D)", "method": "Mice underwent the mid-cerebral artery occlusion (MCAO) model of cerebral ischemia-reperfusion injury as previously described (Connolly, Jr. et al., 1996; Wong et al., 2008). Male mice of 8-12 weeks old were anesthetized by intraperitoneal injection of a mixture of 10 mg/kg xylazine hydrochloride (MTC Pharmaceuticals, Cambridge, ON) and 200 mg/kg ketamine hydrochloride (Rogar/STB, London, ON). Body temperature was maintained at 37° C. using a heating pad and temperature regulator with rectal probe. Mice were randomly divided into 2 groups: (i) sham-operated, and (ii) MCAO-operated. All surgical instruments were sterilized before the surgery. Before any incision, the area was swabbed with ethanol. To induce MCAO, a 10-mm incision was made on the right-hand side of the neck. Then, the common carotid artery, external carotid artery, and internal carotid artery were dissected free. The external carotid artery was further dissected distally, then coagulated and cut to serve as a stump. After applying temporary clamps at the common carotid artery and internal carotid artery, a monofilament with a silicon coating diameter of 0.21-0.23 mm (Doccol Corporation, Redlands, Calif., USA) was inserted into the stump of the external carotid artery. The monofilament then advanced a defined distance (12 mm) so that the distal end of the monofilament came to rest across the origin of the MCA. The stump of external carotid artery was tied off. The wound on the neck of the mouse was sutured and the mouse was then transferred onto a heat pad to maintain its body temperature at 37° C. After 30 mins of occlusion, the monofilament was withdrawn to allow reperfusion to occur. The animal then recovered from the anaesthesia. Rehydration of the mice was performed every 4 h with a subcutaneous injection of electrolytes and glucose. Food pellets softened with water were placed in the cage after surgery as the mice recovered, and access to water was provided. Sham-operated animals were subjected to the initial anaesthetic and neck incision only. The animals were then allowed to recover from anaesthetic. All animals were put onto a 37° C. heat pad, post-surgery, to recover from anaesthesia until euthanized.\n(§1) The anaesthetized mice from Example 1 were washed with 70% ethanol under sterile conditions. Blood was collected by cardiac puncture. The lungs, liver and spleen were removed after thoracotomy and homogenized. For determination of colony forming units (CFU), 10 μl of tissue homogenate or blood was serially diluted, plated onto brain heart infusion (BHI) agar plates supplemented with 5% sheep blood (Daylnn Biologicals, Alberta, Canada), incubated at 37° C. for 18 h, and bacterial colonies were counted.\nas §1, with “Example 7” for “Example 1”"}},
  "note": "Entries after “also recorded” stand apart in the source; their conditions may differ.",
  "data": [
    {"compound": "CCCCCCCCCCCCCCCCCCCCCCCCCCC(=O)N[C@@H](COC1OC(CO)C(O)C(O)C1O)[C@H](O)[C@H](O)CCCCCCCCCCCCCC", "note": "(stereo partly drawn) [α-GalCer, α-galactosylceramide]", "values": [
      {"measurement": "crawling behaviour of liver iNKT cells after administration of the activator", "setting": "hepatic iNKT cells", "value": "cessation of iNKTcells"},
      {"measurement": "growth of tumors", "setting": "tumors; liver metastatic models", "value": "suppressed"},
      {"measurement": "survival term of the tumor-bearing mice", "setting": "tumors; liver metastatic models", "value": "prolonged"},
      {"measurement": "anti-tumor activity", "setting": "tumors; murine in vivo experiments incl. subcutaneous implanted model and liver and lung metastatic models", "value": "potent anti-tumor activity"},
      {"measurement": "infarct sizes", "setting": "[1]", "value": "no notable differences"},
      {"measurement": "systemic levels of endogenous IFN-γ", "setting": "IFNγ", "value": "significantly increased"},
      {"measurement": "infections (bacterial loads in peripheral blood, lungs, livers, spleens)", "setting": "post-stroke infections", "value": "reduced; also recorded: suppressed the occurrence of microbial infections"}
    ]}
  ]
}
